Assay results published in patent US20190022225A1, “PROTOCOL FOR INCREASING LIFE EXPECTANCY IN A TEST SUBJECT” (Mayo Foundation for Medical Education and Research, priority 2015, published 2019).

Legend:
[1] = system: non-senescent aortic endothelial (Endo Aort) cells and pre-adipocytes (Pread); experiment: Nutlin-3a toxicity, cell counts of non-senescent endothelial cells and pre-adipocytes; assay type: cell-based; details: 0, 2.5, 10 μM, 11 days
Experimental: Non-senescent aortic endothelial (Endo Aort) cells and pre-adipocytes (Pread) were also treated with varying concentrations (0, 2.5 μM, and 10 μM) of Nutlin-3a for a period of 11 days to assess Nutlin-3a toxicity, as described above. Cell counts were taken at the start at Day 0 (NS start) and at the end of Nutlin-3a treatment (NS 0). The difference between counts of cells not treated with Nutlin-3a on day 11 (NS 0) and cell counts from NS start reflects the cell growth over the indicated time period. […] Decrease in apparent survival between NS 0 and NS 2.5 and between NS 0 and NS 10 reflects a decrease in cell growth.

LDLR−/− mice fed a HFD = experiment: Atherosclerosis model, LDLR-/- mice on high fat diet treated with Nutlin-3A; assay type: in vivo, mouse
Source text: Schematics of two atherosclerosis mouse models are presented in FIGS. 43A-B. The study illustrated in FIG. 43A assessed the extent to which clearance of senescent cells from plaques in LDLR^−/− mice with Nutlin-3A reduces plaque load. Two groups of LDLR^−/− mice (10 weeks) are fed a high fat diet (HFD) (Harlan Teklad TD.88137) having 42% calories from fat, beginning at Week 0 and throughout the study. Two groups of LDLR^−/− mice (10 weeks) are fed normal chow (−HFD). From weeks 0-2, one group of HFD mice and −HFD mice are treated with Nutlin-3A (25 mg/kg, intraperitoneally). One treatment cycle is 14 days treatment, 14 days off. Vehicle is administered to one group of HFD mice and one group of −HFD mice. At week 4 (timepoint 1), one group of mice are sacrificed and to assess presence of senescent cells in the plaques. For the some of the remaining mice, Nutlin-3A and vehicle administration is repeated from weeks 4-6. At week 8 (timepoint 2), the mice are sacrificed and to assess presence of senescent cells in the plaques. The remaining mice are treated with Nutlin-3A or vehicle from weeks 8-10. At week 12 (timepoint 3), the mice are sacrificed and to assess the level of plaque and the number of senescent cells in the plaques.
Plasma lipid levels were measured in LDLR^−/− mice fed a HFD and treated with Nutlin-3A or vehicle at timepoint 1 as compared with mice fed a −HFD (n=3 per group). Plasma was collected mid-afternoon and analyzed for circulating lipids and lipoproteins.
At the end of timepoint 1, LDLR^−/− mice fed a HFD and treated with Nutlin-3A or vehicle were sacrificed (n=3, all groups), and the aortic arches were dissected for RT-PCR analysis of SASP factors and senescent cell markers. Values were normalized to GAPDH and expressed as fold-change versus age-matched, vehicle-treated LDLR^−/− mice on a normal diet.
At the end of timepoint 2, LDLR^−/− mice fed a HFD and treated with Nutlin-3A or vehicle (n=3 for all groups) were sacrificed, and aortic arches were dissected for RT-PCR analysis of SASP factors and senescent cell markers. Values were normalized to GAPDH and expressed as fold-change versus age-matched, vehicle-treated LDLR^−/− mice on a normal diet.
At the end of timepoint 3, LDLR^−/− mice fed a HFD and treated with Nutlin-3A or vehicle (n=3 for all groups) were sacrificed, and aortas were dissected and stained with Sudan IV to detect the presence of lipid. Body composition of the mice was analyzed by MRI, and circulating blood cells were counted by Hemavet. […] As shown in FIGS. 48A-B, the platelet and lymphocyte counts were equivalent between the Nutlin-3A and vehicle treated mice.

COc1ccc(C2=N[C@@H](c3ccc(Cl)cc3)[C@@H](c3ccc(Cl)cc3)N2C(=O)N2CCNC(=O)C2)c(OC(C)C)c1 [Nutlin-3a]
toxicity to non-senescent aortic endothelial cells and pre-adipocytes (percent growth) [1]: reduces proliferation but is non-toxic
expression of SASP factors and senescent cell markers in aortic arch (LDLR−/− mice fed a HFD; after 1 treatment cycle (25 mg/kg ip, 14 days on, 14 days off)): reduced expression of several SASP factors and senescent cell markers
expression of SASP factors and senescent cell markers in aortic arch (LDLR−/− mice fed a HFD; multiple treatment cycles (timepoint 2)): reduced expression of most markers
platelet and lymphocyte counts versus vehicle (LDLR−/− mice fed a HFD; timepoint 3): equivalent
mass and body fat composition (LDLR−/− mice fed a HFD; timepoint 3, HFD): decreased mass and body fat composition
reduction of plaques in the descending aorta (LDLR−/− mice fed a HFD; timepoint 3, three treatment cycles, Sudan IV staining): ~45%
